{"source": "ChEMBL document CHEMBL5465560", "about": "“Selectivity Literature for EUbOPEN Chemogenomic Library” (2024)", "key": {"[1]": {"molecular_target": "T1, Histone-lysine N-methyltransferase EHMT1 (Homo sapiens) (UniProt Q9H9B1)", "T1 sequence (whole entry)": "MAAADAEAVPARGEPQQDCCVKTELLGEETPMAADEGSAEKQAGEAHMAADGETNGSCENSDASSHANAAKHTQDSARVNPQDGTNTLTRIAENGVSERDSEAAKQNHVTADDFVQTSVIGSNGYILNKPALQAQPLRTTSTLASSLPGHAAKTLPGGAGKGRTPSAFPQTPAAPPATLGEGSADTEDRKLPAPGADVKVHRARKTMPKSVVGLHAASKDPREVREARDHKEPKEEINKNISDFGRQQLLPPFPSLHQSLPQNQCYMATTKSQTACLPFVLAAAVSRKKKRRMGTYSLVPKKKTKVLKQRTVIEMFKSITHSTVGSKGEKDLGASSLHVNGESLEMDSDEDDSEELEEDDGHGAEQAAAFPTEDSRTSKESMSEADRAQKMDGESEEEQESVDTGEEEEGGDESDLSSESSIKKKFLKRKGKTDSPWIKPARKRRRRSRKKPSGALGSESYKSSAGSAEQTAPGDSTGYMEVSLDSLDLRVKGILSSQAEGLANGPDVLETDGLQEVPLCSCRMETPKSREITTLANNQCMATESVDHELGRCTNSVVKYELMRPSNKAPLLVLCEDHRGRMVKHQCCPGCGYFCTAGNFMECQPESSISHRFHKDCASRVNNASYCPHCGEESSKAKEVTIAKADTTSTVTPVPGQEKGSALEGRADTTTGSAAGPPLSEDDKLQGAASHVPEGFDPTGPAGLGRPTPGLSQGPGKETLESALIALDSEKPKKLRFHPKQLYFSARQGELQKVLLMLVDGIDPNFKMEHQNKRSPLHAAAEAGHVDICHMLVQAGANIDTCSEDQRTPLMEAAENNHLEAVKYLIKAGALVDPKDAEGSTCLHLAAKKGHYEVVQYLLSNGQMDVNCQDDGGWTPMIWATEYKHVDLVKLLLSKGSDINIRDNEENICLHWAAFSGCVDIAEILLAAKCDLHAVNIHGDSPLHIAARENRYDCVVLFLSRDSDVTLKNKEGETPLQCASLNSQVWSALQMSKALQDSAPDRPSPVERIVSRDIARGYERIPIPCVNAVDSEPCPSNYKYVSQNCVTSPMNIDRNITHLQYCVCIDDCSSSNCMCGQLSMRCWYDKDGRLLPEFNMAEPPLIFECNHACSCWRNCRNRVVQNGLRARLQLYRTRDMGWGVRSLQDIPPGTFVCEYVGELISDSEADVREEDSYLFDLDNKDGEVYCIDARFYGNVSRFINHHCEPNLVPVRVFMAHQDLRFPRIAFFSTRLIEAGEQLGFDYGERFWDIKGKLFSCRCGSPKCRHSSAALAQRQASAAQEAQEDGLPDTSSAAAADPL", "conditions": "at 1 µM"}, "[2]": {"molecular_target": "Fibroblast growth factor receptor 4 (Homo sapiens, UniProt P22455)", "sequence (P22455 22-802 limits assumed)": "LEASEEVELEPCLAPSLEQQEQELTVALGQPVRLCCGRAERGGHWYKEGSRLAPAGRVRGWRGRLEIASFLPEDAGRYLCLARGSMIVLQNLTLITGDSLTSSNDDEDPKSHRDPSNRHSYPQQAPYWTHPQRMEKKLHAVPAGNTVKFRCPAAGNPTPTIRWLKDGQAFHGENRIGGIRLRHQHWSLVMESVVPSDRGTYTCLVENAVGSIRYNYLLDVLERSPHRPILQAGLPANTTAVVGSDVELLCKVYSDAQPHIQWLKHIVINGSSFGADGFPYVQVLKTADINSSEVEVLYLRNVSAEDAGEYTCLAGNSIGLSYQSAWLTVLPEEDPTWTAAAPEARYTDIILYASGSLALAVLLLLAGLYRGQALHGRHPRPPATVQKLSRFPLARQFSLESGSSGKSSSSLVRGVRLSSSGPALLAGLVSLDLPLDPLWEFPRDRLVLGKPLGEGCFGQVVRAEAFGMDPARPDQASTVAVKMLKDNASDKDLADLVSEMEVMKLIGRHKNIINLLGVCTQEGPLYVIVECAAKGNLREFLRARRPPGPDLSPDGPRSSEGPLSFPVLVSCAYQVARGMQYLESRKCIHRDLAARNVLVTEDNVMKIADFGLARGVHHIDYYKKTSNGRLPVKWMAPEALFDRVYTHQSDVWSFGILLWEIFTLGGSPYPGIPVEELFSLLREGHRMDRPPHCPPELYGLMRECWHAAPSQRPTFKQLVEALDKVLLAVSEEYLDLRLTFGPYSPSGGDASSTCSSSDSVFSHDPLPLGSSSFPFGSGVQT", "test": "Selectivity interaction (KinomeScan (DiscoverX)) EUB0000045b FGFR4"}, "[3]": {"molecular_target": "Dual specificity protein kinase CLK1 (Homo sapiens, UniProt P49759)", "sequence (P49759 whole entry, looked up)": "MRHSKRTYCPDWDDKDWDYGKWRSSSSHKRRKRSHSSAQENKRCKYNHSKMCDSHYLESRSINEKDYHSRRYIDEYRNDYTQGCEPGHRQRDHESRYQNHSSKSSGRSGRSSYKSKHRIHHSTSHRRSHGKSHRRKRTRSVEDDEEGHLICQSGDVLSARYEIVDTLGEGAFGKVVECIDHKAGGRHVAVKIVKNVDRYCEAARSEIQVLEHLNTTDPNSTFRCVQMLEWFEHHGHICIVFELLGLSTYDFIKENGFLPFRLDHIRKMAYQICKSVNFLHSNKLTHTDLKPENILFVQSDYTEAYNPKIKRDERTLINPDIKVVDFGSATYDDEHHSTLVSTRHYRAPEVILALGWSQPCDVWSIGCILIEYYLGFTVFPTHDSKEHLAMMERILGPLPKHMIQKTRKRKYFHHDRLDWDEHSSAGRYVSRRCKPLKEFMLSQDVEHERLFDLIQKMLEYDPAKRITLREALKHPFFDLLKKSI", "test": "Selectivity interaction (KinomeScan (DiscoverX)) EUB0000045b CLK1"}, "[4]": {"molecular_target": "T2, G protein-coupled receptor kinase 3 (Homo sapiens) (UniProt P35626)", "T2 sequence (whole entry)": "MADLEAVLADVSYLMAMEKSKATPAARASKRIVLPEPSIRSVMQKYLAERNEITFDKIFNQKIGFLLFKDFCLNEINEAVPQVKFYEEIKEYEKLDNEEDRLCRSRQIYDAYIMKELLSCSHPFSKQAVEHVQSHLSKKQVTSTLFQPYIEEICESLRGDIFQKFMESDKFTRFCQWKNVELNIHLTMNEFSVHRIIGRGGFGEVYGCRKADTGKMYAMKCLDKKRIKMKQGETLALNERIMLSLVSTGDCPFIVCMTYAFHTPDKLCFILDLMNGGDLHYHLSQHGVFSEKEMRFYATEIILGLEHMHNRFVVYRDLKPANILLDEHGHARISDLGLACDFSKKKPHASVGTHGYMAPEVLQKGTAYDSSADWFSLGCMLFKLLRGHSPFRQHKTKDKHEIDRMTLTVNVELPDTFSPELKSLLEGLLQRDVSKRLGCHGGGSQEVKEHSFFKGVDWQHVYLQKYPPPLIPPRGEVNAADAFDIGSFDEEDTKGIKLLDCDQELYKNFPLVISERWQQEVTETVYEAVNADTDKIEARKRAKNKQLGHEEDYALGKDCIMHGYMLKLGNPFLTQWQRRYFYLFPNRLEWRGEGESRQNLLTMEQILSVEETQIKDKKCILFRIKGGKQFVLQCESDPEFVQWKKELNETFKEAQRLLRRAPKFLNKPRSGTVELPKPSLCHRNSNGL", "test": "Selectivity interaction (Kinase panel (Z-LYTE Assay)) EUB0001632a ADRBK2", "conditions": "at 10 µM"}, "[5]": {"molecular_target": "TGF-beta receptor type-2 (Homo sapiens) (UniProt P37173)", "sequence (P37173 whole entry)": "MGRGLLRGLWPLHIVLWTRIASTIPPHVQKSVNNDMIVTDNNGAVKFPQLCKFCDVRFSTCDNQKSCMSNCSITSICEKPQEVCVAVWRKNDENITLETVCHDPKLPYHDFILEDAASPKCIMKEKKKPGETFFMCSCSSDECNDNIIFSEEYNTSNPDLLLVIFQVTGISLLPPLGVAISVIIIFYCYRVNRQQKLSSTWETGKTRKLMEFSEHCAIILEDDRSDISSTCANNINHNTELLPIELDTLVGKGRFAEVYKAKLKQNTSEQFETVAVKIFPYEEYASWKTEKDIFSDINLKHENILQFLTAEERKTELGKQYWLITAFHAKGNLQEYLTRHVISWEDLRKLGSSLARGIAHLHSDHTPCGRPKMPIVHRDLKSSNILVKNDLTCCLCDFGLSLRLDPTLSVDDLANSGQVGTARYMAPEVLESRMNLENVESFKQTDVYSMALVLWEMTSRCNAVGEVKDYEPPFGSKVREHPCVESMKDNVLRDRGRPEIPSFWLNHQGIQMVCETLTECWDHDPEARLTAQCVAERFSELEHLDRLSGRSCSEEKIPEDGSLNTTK", "test": "Selectivity interaction (KinomeScan (DiscoverX)) EUB0000655a TGFBR2", "conditions": "at 10 µM"}, "[6]": {"molecular_target": "T3, Protein kinase C iota type (Homo sapiens) (UniProt P41743)", "T3 sequence (whole entry)": "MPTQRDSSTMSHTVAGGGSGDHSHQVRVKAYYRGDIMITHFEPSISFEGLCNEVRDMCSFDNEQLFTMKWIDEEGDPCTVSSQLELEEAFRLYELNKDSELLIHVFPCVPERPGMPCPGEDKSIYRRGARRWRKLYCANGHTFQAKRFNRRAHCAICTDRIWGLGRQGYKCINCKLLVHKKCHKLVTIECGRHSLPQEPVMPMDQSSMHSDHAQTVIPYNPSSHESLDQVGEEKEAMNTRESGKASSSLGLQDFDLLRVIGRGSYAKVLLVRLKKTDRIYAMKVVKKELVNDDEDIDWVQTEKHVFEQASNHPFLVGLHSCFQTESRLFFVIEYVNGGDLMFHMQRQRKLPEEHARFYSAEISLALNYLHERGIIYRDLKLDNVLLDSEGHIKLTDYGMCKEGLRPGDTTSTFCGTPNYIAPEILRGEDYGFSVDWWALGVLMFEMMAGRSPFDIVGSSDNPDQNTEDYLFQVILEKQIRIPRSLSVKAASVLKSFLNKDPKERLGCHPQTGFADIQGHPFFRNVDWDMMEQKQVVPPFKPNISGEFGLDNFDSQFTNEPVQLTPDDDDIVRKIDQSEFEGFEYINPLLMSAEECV", "test": "Selectivity interaction (KinomeScan (DiscoverX)) EUB0000655a PRKCI", "conditions": "at 10 µM"}}}
{"smiles": "CNCCN1CCC(c2cc(CN(C)C(=O)c3cccc(Oc4ccccc4)c3)ccn2)CC1", "values": [{"measurement": "% activity", "setting": "[1]", "result": "> 90", "unit": "%"}]}
{"smiles": "C=CC(=O)Nc1cc(-n2c(=O)ccc3cnc4ccc(-c5ccc(NS(C)(=O)=O)cc5)cc4c32)ccc1C", "values": [{"measurement": "% of control", "setting": "[2]; at 1 µM", "result": 100, "unit": "%"}, {"measurement": "% of control", "setting": "[2]; at 10 µM", "result": 84, "unit": "%"}, {"measurement": "% of control", "setting": "[3]; at 1 µM", "result": 95, "unit": "%"}, {"measurement": "% of control", "setting": "[3]; at 10 µM", "result": 86, "unit": "%"}]}
{"smiles": "Cn1cc(-n2cnc3c(NCc4nc5cc(Cl)c(Cl)cc5[nH]4)nc(N4CCOCC4)nc32)cn1", "values": [{"measurement": "% of control", "setting": "[4]", "result": -1.17, "unit": "%"}]}
{"smiles": "CN(C)CCOc1ccc(-c2nc(-c3ccncc3)c(-c3ccc4c(c3)CC/C4=N\\O)[nH]2)cc1", "values": [{"measurement": "% of control", "setting": "[5]", "result": 44, "unit": "%"}, {"measurement": "% of control", "setting": "[6]", "result": 80, "unit": "%"}]}
